From patent publication US10815274B2, “Immunogenic WT-1 peptides and methods of use thereof” (Memorial Sloan Kettering Cancer Center, priority 2012, dated 2020)
Where a SMILES comes first, the peptide text is derived from it.

Key:
Conditions in all cases: 50:1 E:T
[1] = system: WT1+ allo APC with restricting HLA allele loaded with WT1 peptide; test: Cr51 release assay, cytotoxic CTL response vs peptide loaded allogeneic APC sharing restricting HLA allele (HLA restriction)
WT1- autologous APC = test: Cr51 release assay, cytotoxic CTL response vs unmodified autologous APC; type: cell-based, human
[2] = system: WT1- allo APC with restricting HLA allele; test: Cr51 release assay, cytotoxic CTL response vs unloaded allogeneic APC sharing restricting HLA allele; type: cell-based, human
[3] = system: WT1 peptide loaded autologous APC; test: Cr51 release assay, cytotoxic CTL response vs peptide loaded autologous APC; type: cell-based, human

CC(C)C[C@H](NC(=O)[C@H](CS)NC(=O)[C@H](CO)NC(=O)[C@@H]1CCCN1)C(=O)N[C@@H](CCC(=O)O)C(=O)N[C@@H](CO)C(=O)N[C@@H](CCC(N)=O)C(=O)N1CCC[C@H]1C(=O)N[C@@H](C)C(=O)O [SEQ ID NO: 162] (H-PSCLESQPA-OH; N-terminus and C-terminus assumed)
Cytotoxic CTL response, % vs WT1+ allo APC with restricting HLA allele loaded with WT1 peptide ([1]; HLA allele B3501): 21%
Cytotoxic CTL response, % vs WT1- autologous APC (WT1- autologous APC; HLA allele B3501): 0%
Cytotoxic CTL response, % vs WT1- allo APC with restricting HLA allele ([2]; HLA allele B3501): 0%
Cytotoxic CTL response, % vs WT1 peptide loaded autologous APC ([3]; HLA allele B3501): 35%

CC(C)[C@H](NC(=O)[C@@H](NC(=O)[C@H](CO)NC(=O)[C@H](Cc1ccc(O)cc1)NC(=O)CNC(=O)[C@H](CCC(N)=O)NC(=O)[C@@H](N)CC(N)=O)[C@@H](C)O)C(=O)N[C@H](C(=O)N[C@@H](Cc1ccccc1)C(=O)O)[C@@H](C)O [SEQ ID NO: 163] (H-NQGYSTVTF-OH; N-terminus and C-terminus assumed)
Cytotoxic CTL response, % vs WT1+ allo APC with restricting HLA allele loaded with WT1 peptide ([1]; HLA allele A0101): 15%
Cytotoxic CTL response, % vs WT1- autologous APC (WT1- autologous APC; HLA allele A0101): 2%
Cytotoxic CTL response, % vs WT1- allo APC with restricting HLA allele ([2]; HLA allele A0101): 4%
Cytotoxic CTL response, % vs WT1 peptide loaded autologous APC ([3]; HLA allele A0101): 19%

C[C@H](NC(=O)[C@H](C)NC(=O)[C@H](Cc1c[nH]cn1)NC(=O)[C@@H](N)Cc1c[nH]cn1)C(=O)N[C@@H](CCC(N)=O)C(=O)N[C@@H](Cc1ccccc1)C(=O)N1CCC[C@H]1C(=O)N[C@@H](CC(N)=O)C(=O)N[C@@H](Cc1c[nH]cn1)C(=O)O [SEQ ID NO: 164] (H-HHAAQFPNH-OH; N-terminus and C-terminus assumed)
Cytotoxic CTL response, % vs WT1+ allo APC with restricting HLA allele loaded with WT1 peptide ([1]; HLA allele B3801): 17%
Cytotoxic CTL response, % vs WT1- autologous APC (WT1- autologous APC; HLA allele B3801): 0%
Cytotoxic CTL response, % vs WT1- allo APC with restricting HLA allele ([2]; HLA allele B3801): 1%
Cytotoxic CTL response, % vs WT1 peptide loaded autologous APC ([3]; HLA allele B3801): 26%

C[C@@H](O)[C@H](NC(=O)[C@H](CS)NC(=O)[C@H](CO)NC(=O)[C@H](CC(=O)O)NC(=O)[C@@H](NC(=O)[C@@H]1CCCN1C(=O)[C@@H](NC(=O)[C@H](Cc1c[nH]cn1)NC(=O)[C@@H](N)CS)[C@@H](C)O)[C@@H](C)O)C(=O)O [SEQ ID NO: 166] (H-CHTPTDSCT-OH)
Cytotoxic CTL response, % vs WT1+ allo APC with restricting HLA allele loaded with WT1 peptide ([1]; HLA allele B4402): 19%
Cytotoxic CTL response, % vs WT1- autologous APC (WT1- autologous APC; HLA allele B4402): 8%
Cytotoxic CTL response, % vs WT1- allo APC with restricting HLA allele ([2]; HLA allele B4402): 7%
Cytotoxic CTL response, % vs WT1 peptide loaded autologous APC ([3]; HLA allele B4402): 37%

CC(C)C[C@H](NC(=O)[C@@H](NC(=O)[C@H](C)NC(=O)CNC(=O)[C@@H](N)CC(C)C)[C@@H](C)O)C(=O)N[C@@H](CCCCN)C(=O)NCC(=O)N[C@H](C(=O)N[C@@H](C)C(=O)N[C@@H](C)C(=O)O)C(C)C [SEQ ID NO: 176] (H-LGATLKGVAA-OH; N-terminus and C-terminus assumed)
Cytotoxic CTL response, % vs WT1+ allo APC with restricting HLA allele loaded with WT1 peptide ([1]; HLA allele A0203): 21%
Cytotoxic CTL response, % vs WT1- autologous APC (WT1- autologous APC; HLA allele A0203): 0%
Cytotoxic CTL response, % vs WT1- allo APC with restricting HLA allele ([2]; HLA allele A0203): 0%
Cytotoxic CTL response, % vs WT1 peptide loaded autologous APC ([3]; HLA allele A0203): 35%

CC(C)C[C@H](NC(=O)[C@@H](N)[C@@H](C)O)C(=O)NCC(=O)N[C@H](C(=O)N[C@@H](C)C(=O)N[C@@H](C)C(=O)NCC(=O)N[C@@H](CO)C(=O)O)C(C)C [SEQ ID NO: 177] (H-TLGVAAGS-OH; N-terminus and C-terminus assumed)
Cytotoxic CTL response, % vs WT1+ allo APC with restricting HLA allele loaded with WT1 peptide ([1]; HLA allele A6901): 57%
Cytotoxic CTL response, % vs WT1- autologous APC (WT1- autologous APC; HLA allele A6901): 4%
Cytotoxic CTL response, % vs WT1- allo APC with restricting HLA allele ([2]; HLA allele A6901): 0%
Cytotoxic CTL response, % vs WT1 peptide loaded autologous APC ([3]; HLA allele A6901): 80%

CC(C)C[C@H](NC(=O)[C@H](Cc1c[nH]cn1)NC(=O)[C@H](CC(=O)O)NC(=O)[C@H](CO)NC(=O)[C@H](CCCNC(=N)N)NC(=O)[C@H](CO)NC(=O)[C@H](Cc1ccccc1)NC(=O)[C@H](CCCCN)NC(=O)[C@@H](N)CCCNC(=N)N)C(=O)O [SEQ ID NO: 181] (H-RKFSRSDHL-OH; N-terminus and C-terminus assumed)
Cytotoxic CTL response, % vs WT1+ allo APC with restricting HLA allele loaded with WT1 peptide ([1]; HLA allele A0201): 27%
Cytotoxic CTL response, % vs WT1- autologous APC (WT1- autologous APC; HLA allele A0201): 3%
Cytotoxic CTL response, % vs WT1- allo APC with restricting HLA allele ([2]; HLA allele A0201): 1%
Cytotoxic CTL response, % vs WT1 peptide loaded autologous APC ([3]; HLA allele A0201): 40%
